Experimental findings from paper PMC7230731 (Marine Drugs, 2020) are described below.

What all share (type): cell-based, human
For one assay, the system named is MCF-7 cells. Put plainly: SRB antiproliferative assay, MCF-7. The following applies: for IC50: Homo sapiens, MCF7, 48 h, MCF-7 breast cancer cells, SRB assay, 48 h, mean ± S.D. of three experiments; for potency relative to Staurosporine, MCF-7: ratio of IC50 values, MCF-7 cells. The protocol: 1. Anti-proliferative action toward human breast cell lines […]
and non-tumorigenic human breast epithelial cell line (MCF-10A) have been obtained from American Type Culture Collection (ATCC). The cells were maintained in Dulbecco's modified Eagle's medium (DMEM) supplemented with 10% heat inactivated fetal calf serum (GIBCO), penicillin (100 U/ml) and streptomycin (100 µg/ml) at 37 °C in humidified atmosphere containing 5% CO2. […]
grown in a 25 cm2 flask in 5 ml of culture medium.
The anti-proliferative activity of the tested compounds was measured in vitro using the Sulfo-Rhodamine-B stain (SRB) assay. Briefly, Cells were inoculated in 96-well microtiter plate (5X104 cells/ well) for 24 h before treatment with the tested compounds to allow attachment of cell to the wall of the plate. Tested compounds were dissolved in DMSO at 1 mg/ml immediately before use and diluted to the appropriate volume just before addition to the cell culture. Different concentrations of tested compounds, doxorubicin and sorafenib were added to the cells (three wells were prepared for each […]
atmosphere of 5% CO2. After 48 h cells were fixed, washed, and stained for 30 min with 0.4% (w/v) SRB dissolved in 1% acetic acid. Unbound dye was removed by four washes with 1% acetic acid, and attached stain was recovered with Tris-EDTA buffer. Color intensity was measured in an ELISA reader. The relation between percent of surviving fraction and drug concentration is plotted to get the survival curve for each cell line. […]
A general note: In SRB staining, fixed cells bind dye roughly in proportion to their protein.

Another assay has as its system Bax. Briefly: ELISA immunoassay, Bax level. Conditions: MCF-7 cells; for Bax: IC50 concentration, 48 h. An excerpt: (§1) Synchronization of the mitochondrial pathway is headed by the Bcl-2 family of proteins. These proteins are classified into two groups: anti-apoptotic proteins exemplified by Bcl-2 protein and the counteracting pro-apoptotic proteins including Bax protein [21]. As induction of the apoptotic machinery is one of the most useful strategies in cancer therapy, we investigated the effect of our compounds to boost the pro-apoptotic protein; Bax and reduce the anti-apoptotic protein; Bcl-2 in an attempt to explore the underlying mechanism for their cytotoxic activity (Table 1). […] Fortunately, both compounds markedly boosted the level of Bax by 8.3- and 6.4-fold, respectively (Table 4, Figure 3).
(§2) Effects of treatment of breast cancer MCF-7 cells with bis-indoles 7e and 9a on the expression levels of the pro-apoptotic markers (Bax, caspase-3, and p53) in addition to the anti-apoptotic protein Bcl-2 marker was assessed by the use of ELISA colorimetric kits as per the manufacturer’s instructions, as described earlier.
(§3) The levels of the pro-apoptotic markers (Bax, caspase-3 and p53) as well as the anti-apoptotic marker Bcl-2 were determined using ELISA colorimetric kits per the manufacturer’s instructions. Breast cancer MCF-7 cells were cultured as a monolayer in T-25 flasks and were seeded to attain 30% confluency prior to treatment. Cells were […]
(§4) At the end of treatment, cells were collected via trypsinization and centrifuged at 10,000 rpm. The pellet was then rinsed with PBS and lysed in RIPA lysis buffer at 4 °C for 45 min, then centrifuged at 14,000 rpm for 20 min to remove the cellular debris. Lysates were then collected and stored at −80 °C for later protein determination using Pierce BCA Protein Assay Kit according to manufacturer’s recommendations.
(§5) The cell lysate was diluted 10 times, and 100 μL ([…]) was added to the wells of four separate microtiter plates for the four ELISA kits that were pre-coated with primary antibodies specific to Bax, Bcl-2, caspase-3 and p53 proteins, respectively. A secondary biotin-linked antibody specific to the protein captured by the primary antibody was further added to bind the captured protein, forming a “sandwich” of specific antibodies around the desired protein in the cell lysate. The streptavidin-HRP complex was then used to bind the biotin-linked secondary antibody through its streptavidin portion. The HRP domain reacted with the added TMB substrate to form a colored product that measured at 450 nm by a plate reader ChroMate-4300 after the reaction was terminated via the addition of stop solution. […]
Breast […]
cancer MCF-7 cells were cultured to a monolayer then treated with bis-indoles 7e and 9a at their IC50 concentration. […]

The subject of a further assay is Bax/Bcl-2. Briefly: Bax/Bcl-2 ratio from ELISA. Conditions: MCF-7 cells; for Bax/Bcl-2: IC50 concentration, 48 h.
Source text: as §1, §2, §3, §4, §5
For orientation: ELISA stands for enzyme-linked immunosorbent assay.

Broadly, the IC50 is the concentration that gives 50% inhibition. A higher IC50 goes with weaker potency in that assay. Take `O=C(Cc1c[nH]c2ccccc12)NN=C1C(=O)Nc2ccc([N+](=O)[O-])cc21` [Compound 7e, 2-(1H-Indol-3-yl)-N′-(5-nitro-2-oxoindolin-3-ylidene)acetohydrazide]: in the assay on MCF-7 cells, it took 440 ± 10 nM to reach half-maximal inhibition (IC50) and the “potency relative to Staurosporine, MCF-7” value was 15.5 times. In addition, in the assay with Bax, the “increase of Bax level vs control” value came to 8.3 fold and the Bax is listed as 318.0 ± 10.5 pg/mg of Total Protein. For the same molecule, in the assay with Bax/Bcl-2, the “Bax/Bcl-2 ratio augmentation vs control” value amounted to 18.65 fold and the Bax/Bcl-2 came out at 153.6.
For the molecule `C=CCN1C(=O)C(=NNC(=O)Cc2c[nH]c3ccccc23)c2ccccc21` [Compound 9a, N′-(1-Allyl-2-oxoindolin-3-ylidene)-2-(1H-indol-3-yl)acetohydrazide], in the assay with MCF-7 cells, the IC50 came out at 1280 ± 40 nM and the “potency relative to Staurosporine, MCF-7” value stood at 5.3 times. Besides, in the assay on Bax, the “increase of Bax level vs control” value was found to be 6.4 fold and the Bax is given as 243.6 ± 12.4 pg/mg of Total Protein. Moreover, in the assay on Bax/Bcl-2, the “Bax/Bcl-2 ratio augmentation vs control” value was found to be 11.1 fold and the Bax/Bcl-2 is 91.2.
